Laboratory results: ChEMBL document CHEMBL4033635, “Structure, synthesis and biological properties of the pentacyclic guanidinium alkaloids” (Bioorg Med Chem, 2017)
Converted amounts (≈) assume the structure as drawn.

Legend:
[1] = system: Plasmodium falciparum; assay: Antiprotozoal activity against chloroquine-sensitive Plasmodium falciparum D6 after 48 hrs by lactate dehydrogenase assay; assay type: functional; settings: D6, 48 h
[2] = system: Human immunodeficiency virus 1; assay: Inhibition of HIV-1 reverse transcriptase at 10 uM
[3] = system: Staphylococcus aureus; assay: Antibacterial activity against methicilin-resistant Staphylococcus aureus; assay type: functional
[4] = system: Plasmodium falciparum; assay: Antiprotozoal activity against chloroquine-resistant Plasmodium falciparum W2 after 48 hrs by lactate dehydrogenase assay; assay type: functional; settings: W2, 48 h
[5] = Inhibition of pig cerebral cortex Na+/K+-ATPase; parameters: species or system Sus scrofa
[6] = system: Human immunodeficiency virus 1; assay: Antiviral activity against HIV1 LAV in human PBM cells; assay type: functional, cell-based; settings: Human immunodeficiency virus 1, LAV
[7] = system: Staphylococcus aureus; assay: Antibacterial activity against Staphylococcus aureus; assay type: functional
[8] = Inhibition of rabbit sercoplasmic reticulum Ca+-ATPase; parameters: species or system Oryctolagus cuniculus
[9] = system: K562; assay: Cytotoxicity against human K562 cells; assay type: functional, cell-based
[10] = system: K562; assay: Growth inhibition of human K562 cells; assay type: functional
[11] = Inhibition of Ca2+-ATPase (unknown origin); parameters: species or system Homo sapiens
[12] = molecular target: Neuronal acetylcholine receptor subunit alpha-7 (Homo sapiens, UniProt P36544); assay: Displacemet of [125I]-alphaBgt from human alpha7 nAChR expressed in rat GH4C1 cells preincubated for 2 to 3 hrs followed by [125I]-alphaBgt addition measured after 5 mins; assay type: cell-based
[13] = system: HeLa; assay: Antiproliferative activity against human HeLa cells; assay type: functional, cell-based
[14] = Displacement of [125I]-alphaBgt from Torpedo californica muscle-type nAChR preincubated for 2 to 3 hrs followed by [125I]-alphaBgt addition addition measured after 5 mins; parameters: species or system Tetronarce californica
[15] = molecular target: Eukaryotic translation initiation factor 5A-1 (Homo sapiens) (UniProt P63241); assay: Inhibition of eIF5A-1 (unknown origin) at 1 uM
Eukaryotic translation initiation factor 5A-1 (Homo sapiens), sequence (P63241 whole entry): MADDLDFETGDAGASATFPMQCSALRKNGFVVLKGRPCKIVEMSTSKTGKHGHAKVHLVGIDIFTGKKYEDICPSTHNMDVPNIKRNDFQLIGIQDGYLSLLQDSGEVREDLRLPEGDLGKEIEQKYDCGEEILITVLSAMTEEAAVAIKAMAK

Neuronal acetylcholine receptor subunit alpha-7, sequence (P36544 whole entry): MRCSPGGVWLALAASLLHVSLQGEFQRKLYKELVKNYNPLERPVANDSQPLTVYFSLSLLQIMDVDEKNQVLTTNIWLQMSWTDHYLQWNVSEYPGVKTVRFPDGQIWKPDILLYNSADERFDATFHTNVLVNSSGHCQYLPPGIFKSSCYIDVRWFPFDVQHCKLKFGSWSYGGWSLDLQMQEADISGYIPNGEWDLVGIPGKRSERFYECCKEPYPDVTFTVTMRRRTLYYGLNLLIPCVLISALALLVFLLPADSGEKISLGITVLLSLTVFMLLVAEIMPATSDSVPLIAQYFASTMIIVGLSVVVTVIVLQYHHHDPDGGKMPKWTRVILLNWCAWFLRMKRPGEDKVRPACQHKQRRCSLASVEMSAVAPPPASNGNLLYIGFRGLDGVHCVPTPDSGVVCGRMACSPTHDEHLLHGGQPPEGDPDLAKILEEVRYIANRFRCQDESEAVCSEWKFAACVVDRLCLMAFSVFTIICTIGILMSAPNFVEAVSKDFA

`CC[C@H]1C=CCC[C@@]2(C[C@@H]3CC[C@@H]4[C@H](C(=O)OCCCCCCCCCCCCCCCC(=O)N(CCCN)CCCN)[C@]5(CCC[C@@H](C)O5)NC(=N2)N34)O1` showed an IC50 [1] of 0.11 to 0.12 µg/mL (≈ 0.143 to 0.156 µM), an inhibition [2] of 55 to 64% and an MIC [3] of 0.63 µg/mL (≈ 0.817 µM). The IC50 [4] was 0.11 to 0.12 µg/mL (≈ 0.143 to 0.156 µM), the IC50 [5] was 2 µM and the EC50 [6] was 0.011 µM. It also gave an EC90 [6] of 0.046 µM, an MIC [7] of 0.63 µg/mL (≈ 0.817 µM) and an IC50 [8] of 10 µM.
In the case of `NCCCCN(CCCN)C(=O)CCCCCCCCCCCCCCCc1ccc2c(c1)[C@@H]1C[C@]3(CCCCO3)NC3=[N+]1[C@@H]2C[C@@]1(CCCCO1)N3.[Cl-]`, the IC50 [9] is reported as 0.52 µg/mL and the inhibition [2] is reported as 64%.
Work on `CC[C@H]1C=CCC[C@@]2(C[C@@H]3CC[C@@H]4C(C(=O)OC/C=C/c5ccccc5)[C@]5(CCC[C@@H](C)O5)NC(=[N+]34)N2)O1` (stereo partly drawn) yielded a GI50 [10] of less than 1 µM.
Work on `NCCCCN(CCCN)C(=O)CCCCCCCCCCCCCCC(=O)O[C@H]1C[C@H]2C[C@@]3(CCCCO3)NC3=[N+]2[C@@H]1C[C@@]1(CCCCCO1)N3` yielded an IC50 [11] of 1 µM.
`CC/C=C/[C@H]1CC[C@@]2(C[C@@H]3CC[C@@H]4[C@H](C(=O)OCCCCCCCCCCCCCCC(O)C(=O)NCCCN)[C@]5(CCC[C@@H](C)O5)N=C(N2)N34)O1` (stereo partly drawn) gave a Ki [12] of 8 to 310 µM, an IC50 [13] of 0.58 to 2.1 µM and a Ki [14] of 8 to 310 µM.
For `CC[C@H]1C=CCC[C@@]2(C[C@@H]3CC[C@@H]4[C@H](C(=O)OCCCCCCCCCCCCCCCC(=O)N(CCCN)C[C@@H](O)CCN)[C@]5(CCC[C@@H](C)O5)NC(=N2)N34)O1`, the EC50 [6] was 0.04 µM and the EC90 [6] was 0.12 µM.
`NCCCCN(CCCN)C(=O)CCCCCCCCCCCCCCC(=O)O[C@H]1C[C@H]2C[C@@]3(CCCCCO3)NC3=[N+]2[C@H]1C[C@]1(CCCCO1)N3` showed an IC50 [11] of 3 µM.
`CCC[C@@H]1CCC[C@@]2(N=C3N[C@]4(CCC=C[C@H](CC)O4)C[C@@H]4CC[C@H]([C@@H]2C(=O)OCCCCCCCCCCCCCCCC(=O)N(CCCN)CCCCN)N34)O1` gave a Ki [12] of 8 to 310 µM and a Ki [14] of 8 to 310 µM.
With `CC/C=C/[C@H]1CC[C@@]2(C[C@@H]3CC[C@@H]4[C@H](C(=O)OCCCCCCCCCCCCCCCC(=O)N(CCCN)CCCCN)[C@]5(CCC[C@@H](C)O5)N=C(N2)N34)O1` the IC50 [13] was 0.58 to 2.1 µM.
`CC/C=C/[C@@H]1CC[C@]2(C[C@H]3CC[C@H]4[C@@H](C(=O)OC(CC)CCCCCCCCCCCCC[C@@H]5O[C@](O)(CCN)[C@H](O)N(CCCN)C5=O)[C@@]5(CCC[C@H](C)O5)NC(=[N+]34)N2)O1` (stereo partly drawn) gave an inhibition [15] of 50%.
